In ChEMBL document CHEMBL1142389, “New insights into the first oxidative phenol coupling reaction during vancomycin biosynthesis” (Bioorg Med Chem Lett, 2008):

Biological target: T1, Cytochrome P450 165B3 (Amycolatopsis orientalis, UniProt Q8RN04)
T1 sequence (Q8RN04 whole entry): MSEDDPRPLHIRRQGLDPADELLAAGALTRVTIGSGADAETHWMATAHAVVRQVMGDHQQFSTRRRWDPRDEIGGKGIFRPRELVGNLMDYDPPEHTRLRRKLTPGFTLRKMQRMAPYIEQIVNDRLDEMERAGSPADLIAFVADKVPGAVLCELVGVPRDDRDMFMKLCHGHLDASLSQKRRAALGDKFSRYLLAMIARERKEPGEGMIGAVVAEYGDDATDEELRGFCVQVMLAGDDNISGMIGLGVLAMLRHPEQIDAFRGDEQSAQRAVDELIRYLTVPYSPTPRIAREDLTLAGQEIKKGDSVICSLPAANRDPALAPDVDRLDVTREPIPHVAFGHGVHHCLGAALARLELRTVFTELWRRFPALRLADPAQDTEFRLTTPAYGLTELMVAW
Assay: Binding affinity to Amycolatopsis orientalis OxyB

Kd	Compound
35 µM	CN[C@H](CC(C)C)C(=O)N[C@H](Cc1ccc(O)cc1)C(=O)N[C@@H](CC(N)=O)C(=O)N[C@@H](C(=O)N[C@@H](C(=O)N[C@H](Cc1ccc(O)cc1)C(=O)O)c1ccc(O)cc1)c1ccc(O)cc1
17 µM	CN[C@H](CC(C)C)C(=O)N[C@H](Cc1ccc(O)cc1)C(=O)N[C@@H](CC(N)=O)C(=O)N[C@@H](C(=O)N[C@@H](C(=O)N[C@@H](Cc1ccc(O)cc1)C(=O)O)c1ccc(O)cc1)c1ccc(O)cc1
